Reference: patent US5242938A, “Derivatives of virginiamycin M1” (Merck & Co., Inc., priority 1992, dated 1993)
Converted amounts (≈) assume the structure as drawn. Where two headings read alike, the source gives them in different places.

Tests used:
[1] = target: T1, CCK-B (guinea pig cortex) (Cavia porcellus, UniProt H0VZC5); test: [125I]BHCCK-8 radioligand binding, guinea pig cortical preparation; settings: read-out: CCK binding inhibition - IC50, [125I]BHCCK
T1 construct: guinea pig cortical preparations; from tissue; host or cells: guinea pig brain cortex membranes
T1 sequence (H0VZC5 1-426): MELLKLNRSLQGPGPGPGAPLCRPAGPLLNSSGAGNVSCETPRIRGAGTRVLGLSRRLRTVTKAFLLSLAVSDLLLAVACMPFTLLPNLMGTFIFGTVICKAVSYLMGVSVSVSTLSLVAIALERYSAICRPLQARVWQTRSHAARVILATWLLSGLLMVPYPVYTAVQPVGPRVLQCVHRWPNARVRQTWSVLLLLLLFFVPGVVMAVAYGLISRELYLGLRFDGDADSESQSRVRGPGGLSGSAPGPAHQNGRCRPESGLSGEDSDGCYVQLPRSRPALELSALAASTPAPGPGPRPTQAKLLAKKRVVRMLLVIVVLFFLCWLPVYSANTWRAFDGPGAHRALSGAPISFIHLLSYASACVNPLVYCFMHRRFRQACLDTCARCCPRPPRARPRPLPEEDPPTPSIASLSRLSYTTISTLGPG
Description: (§1) The resulting supernatant was re-spun at 20,000×g for 20 minutes. […] Incubations were for 40 minutes at 4° C. and were terminated by filtration and washing with ice cold 100 mM saline. […] Incubations were for 30 minutes at room temperature and were terminated by filtration over GF/C filters and washing with 100 mM NaCl.

[2] = target: T1, CCK-B (guinea pig cortex); test: [3H]L-365,260 CCK-B selective antagonist ligand binding, brain membranes; settings: for percentage in parentheses beside >3.0, [3H]L-365,260 (inhibition at top concentration, not defined): beside IC50 >3.0; for IC50: read-out: CCK binding inhibition - IC50, [3H]L-365,260
Description: as §1

CCK-A (rat pancreas) [3] = target: T2, CCK-A (rat pancreas) (Rattus norvegicus, UniProt P30551); test: [125I]BHCCK-8 radioligand binding, rat pancreatic preparation; settings: read-out: CCK binding inhibition - IC50, [125I]BHCCK
T2 construct: from tissue; host or cells: rat pancreas
T2 sequence (P30551 1-444): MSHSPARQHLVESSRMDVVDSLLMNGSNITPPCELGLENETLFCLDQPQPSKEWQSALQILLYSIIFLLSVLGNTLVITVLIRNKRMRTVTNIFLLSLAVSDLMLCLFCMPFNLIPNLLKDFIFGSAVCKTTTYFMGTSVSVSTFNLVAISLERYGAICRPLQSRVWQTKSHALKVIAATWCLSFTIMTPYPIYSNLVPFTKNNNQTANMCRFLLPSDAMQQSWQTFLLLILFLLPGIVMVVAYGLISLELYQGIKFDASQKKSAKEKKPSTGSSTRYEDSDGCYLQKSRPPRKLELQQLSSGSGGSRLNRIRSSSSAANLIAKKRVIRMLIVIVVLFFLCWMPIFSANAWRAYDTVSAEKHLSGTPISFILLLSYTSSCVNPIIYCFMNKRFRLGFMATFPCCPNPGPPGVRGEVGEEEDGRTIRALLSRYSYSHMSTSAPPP
Description: as §1

CCK-A (rat pancreas) [4] = target: T2, CCK-A (rat pancreas); test: [3H]L-364,718 CCK-A selective antagonist ligand binding, pancreas; settings: read-out: CCK binding inhibition - IC50, [3H]L-364,718
Description: as §1

Bacillus sp. (Mb 633) = test: Agar diffusion disc assay, Baci 633; type: cell-based; settings: Bacillus, 18 h, @ 20 g/disc; read-out: Inhibition zone diameter, Baci 633
Description: (§2) Cultures employed in evaluating antimicrobial activity included plant pathogens, human and animal opportunistic pathogens and selected laboratory strains having specific-antibiotic sensitivities or chromosomal or R-plasmid-mediated resistances. […] The agar diffusion MIC's were determined using the method described by Barry in Anitbiotics in Laboratory Medicine, 2nd Ed., Ed. V. Lorian, pp. 1-63, William & Wilkins, Baltimore, 1986. Each test compound was dissolved in methanol to a concentration of 1 mg/ml. Serial dilutions of these compounds were also made to determine an agar diffusion MIC. 20 μl of each dilution was pipetted on to 6 mm paper discs, air dried and placed onto the surface of an agar plate seeded with the appropriate bacteria (~10^6 cfu). Seeded agar plates were incubated overnight (~18 hours) at 25° C. Zone sizes were measured to the nearest mm. Each compound was tested in triplicate and the results shown represent the mean.

[5] = system: Staphylococcus aureus (Mb 108, ATCC 6538P); test: Agar diffusion disc assay, Sta 108; type: cell-based; settings: Staphylococcus aureus, ATCC6538P, 18 h; @ 20 g/disc; read-out: Inhibition zone diameter, Sta 108
Description: as §2

[6] = system: Bacillus subtilis (Mb 964, ATCC 6633); test: Agar diffusion disc assay, Subt 964; type: cell-based; settings: Bacillus subtilis, ATCC6633, 18 h; @ 20 g/disc; read-out: Inhibition zone diameter, Subt 964
Description: as §2

[7] = system: Micrococcus luteus (Mb 1101, ATCC 9341); test: Agar diffusion disc assay, Micr 1101; type: cell-based; settings: Micrococcus luteus; for MIC: read-out: Agar Diffusion MIC versus Micrococcus luteus; for zone of inhibition at 5 µg/disc: 5.00 μg/disc; for zone of inhibition at 10 µg/disc: 10.0 μg/disc
Description: as §2

[8] = system: Staphylococcus aureus (Mb 2983); test: Agar diffusion disc assay, Sta 2983; type: cell-based; settings: Staphylococcus aureus, 18 h; @ 20 g/disc; read-out: Inhibition zone diameter, Sta 2983
Description: as §2

[9] = system: Corynebacterium pseudodiphtheriticum (Mb 261, ATCC 9742); test: Agar diffusion disc assay, Cory 261; type: cell-based; settings: Corynebacterium pseudodiphtheriticum, ATCC9742, 18 h; @ 20 g/disc; read-out: Inhibition zone diameter, Cory 261
Description: as §2

[10] = system: Streptococcus faecium (Mb 2820); test: Agar diffusion disc assay, Str 2820; type: cell-based; settings: Enterococcus faecium, 18 h; @ 20 g/disc; read-out: Inhibition zone diameter, Str 2820
Description: as §2

[11] = system: Streptococcus agalactiae (Mb 2875); test: Agar diffusion disc assay, Str 2875; type: cell-based; settings: Streptococcus agalactiae, 18 h; @ 20 g/disc; read-out: Inhibition zone diameter, Str 2875
Description: as §2

[12] = system: Salmonella gallinarum (Mb 1287); test: Agar diffusion disc assay, Salm 1287; type: cell-based; settings: Salmonella enterica, GALLINARUM, 18 h; @ 20 g/disc; read-out: Inhibition zone diameter, Salm 1287
Description: as §2

[13] = system: Escherichia coli (Mb 1418); test: Agar diffusion disc assay, Coli 1418; type: cell-based; settings: Escherichia coli, 18 h; @ 20 g/disc; read-out: Inhibition zone diameter, Coli 1418
Description: as §2

[14] = system: Pseudomonas stutzeri (Mb 1231, ATCC 11607); test: Agar diffusion disc assay, Pseu 1231; type: cell-based; settings: Stutzerimonas stutzeri, ATCC11607, 18 h; @ 20 g/disc; read-out: Inhibition zone diameter, Pseu 1231
Description: as §2

[15] = system: En terobacter aergenes (Mb 835); test: Agar diffusion disc assay, Ent 835; type: cell-based; settings: 18 h; @ 20 g/disc; read-out: Inhibition zone diameter, Ent 835
Description: as §2

[16] = ATCC9341, 18 h, @ 20 g/disc, read-out: Inhibition zone diameter, Micr 1101
[17] = ATCC9341, 25° C., ~18 hours, read-out: Mean of triplicate zone size versus Micrococcus luteus
[18] = ATCC9341, 20.0 μg/disc, 25° C., ~18 hours, read-out: Mean of triplicate zone size versus Micrococcus luteus

SMILES	IC50 [1]	A.R. = agonist ratio = IC50([3H]L365,260)/IC50([125I]CCK) [2]	percentage in parentheses beside >3.0, [3H]L-365,260 (inhibition at top concentration, not defined) [2]	IC50 [2]	IC50 (CCK-A (rat pancreas) [3])	IC50 (CCK-A (rat pancreas) [4])	zone of inhibition at 20 µg/disc (Bacillus sp. (Mb 633))	zone of inhibition at 20 µg/disc [5]	zone of inhibition at 20 µg/disc [6]	zone of inhibition at 20 µg/disc [7, 16]	MIC ([7]; ATCC9341, 18 h)	zone of inhibition at 5 µg/disc [7, 17]	zone of inhibition at 10 µg/disc [7, 17]	zone of inhibition at 20 µg/disc [7, 18]	zone of inhibition at 20 µg/disc [8]	zone of inhibition at 20 µg/disc [9]	zone of inhibition at 20 µg/disc [10]	zone of inhibition at 20 µg/disc [11]	zone of inhibition at 20 µg/disc [12]	zone of inhibition at 20 µg/disc [13]	other results
CC(=O)OC1=Cc2nc(co2)C(=O)N2CCC=C2C(=O)O[C@H](C(C)C)[C@H](C)/C=C/C(=O)NC/C=C/C(C)=C/[C@@H](OC(C)=O)C1 [Example 1]	0.8 µM	> 25	13%	> 3 µM	> 3 µM	> 3 µM	0 mm	9 mm	0 mm	17 mm	1.92 µM (≈ 1.17 µg/mL)	12 mm	15 mm	16 mm	0 mm	14 mm	0 mm	0 mm	0 mm	0 mm	zone of inhibition at 20 µg/disc [14]: 0 mm; zone of inhibition at 20 µg/disc [15]: 0 mm
CC(=O)O[C@@H]1/C=C(C)/C=C/CNC(=O)/C=C/[C@@H](C)[C@@H](C(C)C)OC(=O)C2=CCCN2C(=O)c2coc(n2)CC(=O)C1 [Example 2]	0.7 µM	> 25	21%	> 3 µM	> 3 µM	> 3 µM	0 mm	11 mm	0 mm	21 mm	3.24 µM (≈ 1.84 µg/mL)	14 mm	18 mm	21 mm	0 mm	13 mm	0 mm	0 mm	0 mm	0 mm	zone of inhibition at 2.5 µg/disc ([7]; ATCC9341, 2.50 μg/disc, 25° C., ~18 hours, read-out: Mean of triplicate zone size versus Micrococcus luteus): 7 mm; zone of inhibition at 20 µg/disc [14]: 0 mm; zone of inhibition at 20 µg/disc [15]: 0 mm
